The record followed here is article PMC6597268 (Biochemistry, 2019).

The structures appear in SMILES notation.

Assay [1] concerns the target T1, MitE (Streptomyces lavendulae, UniProt Q9X5R7).
T1 sequence (Q9X5R7 1-707): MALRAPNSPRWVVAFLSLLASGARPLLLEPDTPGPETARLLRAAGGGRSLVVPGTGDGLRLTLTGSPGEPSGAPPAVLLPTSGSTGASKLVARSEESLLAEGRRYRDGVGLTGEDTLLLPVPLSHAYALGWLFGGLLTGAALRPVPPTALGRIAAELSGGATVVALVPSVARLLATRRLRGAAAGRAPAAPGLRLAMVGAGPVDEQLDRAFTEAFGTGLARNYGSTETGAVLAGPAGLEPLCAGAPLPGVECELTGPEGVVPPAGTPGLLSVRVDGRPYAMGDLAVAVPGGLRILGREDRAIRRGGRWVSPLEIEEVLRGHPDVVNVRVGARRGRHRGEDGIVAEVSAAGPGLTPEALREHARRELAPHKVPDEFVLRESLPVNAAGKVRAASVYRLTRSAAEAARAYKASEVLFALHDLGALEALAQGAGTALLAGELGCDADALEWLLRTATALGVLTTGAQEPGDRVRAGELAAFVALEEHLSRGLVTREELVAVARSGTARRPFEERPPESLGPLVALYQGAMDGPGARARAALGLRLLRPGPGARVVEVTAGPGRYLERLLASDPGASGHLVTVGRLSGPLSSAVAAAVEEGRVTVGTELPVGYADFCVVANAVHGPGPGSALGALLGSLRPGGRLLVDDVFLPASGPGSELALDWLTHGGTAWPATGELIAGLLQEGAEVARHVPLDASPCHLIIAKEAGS
T1 sequence (Q9X5S0 1-93 partner): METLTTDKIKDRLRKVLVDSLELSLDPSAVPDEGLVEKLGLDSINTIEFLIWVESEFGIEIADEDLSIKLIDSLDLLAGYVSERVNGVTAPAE
In words: HPLC of AHBA released from MmcB by KOH or cysteamine. The settings on record: holo-MmcB as acceptor. It is filed as biochemical.

Assay [2] has as its target MitB (Streptomyces lavendulae, UniProt Q9WW09). The assay is described as follows: anion exchange HPLC steady-state kinetics, Michaelis-Menten fit. Type of assay: biochemical. The settings on record: pseudo-first order.

The term Km denotes the concentration of substrate that gives half-maximal velocity.

Regarding `Nc1cc(O)cc(C(=O)O)c1` [AHBA], in assay [1] (ATP), the “HPLC of AHBA released from MmcB by KOH or cysteamine” value is given as “These evidences in combination suggest that MitE catalyzes the loading of AHBA onto holo-MmcB”.

For `Nc1ncnc2c1ncn2[C@@H]1O[C@H](COP(=O)(O)OP(=O)(O)OP(=O)(O)O)[C@@H](O)[C@H]1O` [ATP], the “HPLC of AHBA released from MmcB by KOH or cysteamine” value in assay [1] (AHBA) is reported as “we investigated the ability of MitE to load AHBA to holo-MmcB in the presence of ATP”.

With `CC(=O)NCCSC(=O)c1cc(N)cc(O)c1` [SNAc-AHBA], the Km in assay [2] (2 mM UDP-GlcNAc as donor) is 10 ± 3.3 mM.

Regarding `CC(=O)N[C@H]1[C@@H](OP(=O)(O)OP(=O)(O)OC[C@H]2O[C@@H](n3ccc(=O)[nH]c3=O)[C@H](O)[C@@H]2O)O[C@H](CO)[C@@H](O)[C@@H]1O` [UDP-GlcNAc], in assay [2] (2 mM SNAc-AHBA (unsaturating) as acceptor), the Michaelis constant (Km) was 0.94 ± 0.15 mM.
